Data published in patent US20090209460A1, “COMPOSITIONS AND METHODS FOR TREATING OBESITY AND RELATED METABOLIC DISORDERS” (Amylin Pharmaceuticals, Inc., priority 2005, published 2009).
Like-named read-outs stand apart in the source and are kept apart here. Blank lines part the entries; values can stand above or below the molecule they belong to. Residues, ends and D or L forms follow the SMILES beside them.

What was measured:
[1] = test system: NIH/Swiss mice; assay: acute food intake assay, lean overnight-fasted NIH/Swiss mice, intraperitoneal injection; assay type: in vivo, mouse; conditions: for FI (60′, 200): % change relative to control, 60 min; for reduction of food intake: administered systemically (i.p. to mice), dose and time not stated; for ED50 for effect on food intake: over 30 min, i.p.; for Activity (percent decrease in cumulative food intake compared to the vehicle), AUC: intraperitoneal, timepoint 120 min; for Food Intake Inhibition: mouse assay, dose of 200 mg/kg, measured at 60 minutes
Summary of the method: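 Overnight-fasted lean female NIH/Swiss mice (8-24 weeks, group housed) received vehicle or peptide intraperitoneally at time 0, then pre-weighed standard chow. Food consumed was weighed at 30, 60 and 120 min and expressed as % change versus control.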

[2] = degradation in vitro in plasma, serial MS analyses; assay type: in vitro ADME
Source text: Doses at which we observed herein an absence of anorectic effect (in mice) were 1-2 orders of magnitude higher than the lower U8 dose for maximal hemodynamic effects in dogs (Sumi et al. 1987).

[3] = body weight and food intake in mice with diet induced obesity (mouse DIO), osmotic pump; assay type: in vivo
Experimental: The effect of FN38 and related compounds on body weight and food intake in obese subjects was investigated. Mice having diet induced obesity (DIO) were used. All in vivo tests were performed with peripheral injections of peptide. […] 4-week-old male C57BL/6 mice were group housed with water and a standard pelleted mouse chow diet available ad libitum, except as noted, and were maintained on a on a high fat diet (58% kcal from fat) for 4 weeks prior to the experiment. At the end of fattening period, osmotic pumps were implanted interscapularly under anesthesia. Mice received pumps continuously delivering vehicle (50% DMSO in water or saline) or polypeptide at the dose indicated. Food intake and body weight measurements were obtained weekly.

[4] = cumulative weight gain in rats with diet induced obesity (rat DIO), subcutaneous pump for seven days; assay type: in vivo; conditions: subcutaneously continuously by pump for seven days
Experimental: Both compounds were administered subcutaneously continuously by pump for seven days at the rate and dosage indicated.

[5] = test system: over-night fasted rats; assay: food intake in over-night fasted rats, given intraperitoneally; assay type: in vivo, rat; conditions: 0.1 to 1.5 mg/kg, 30 and 60 minutes
Experimental: FN38 in vehicle (10% DMSO in saline) was administered at 0.1 to 1.5 mg/kg. The food intake in grams and as a percent of vehicle are presented in FIGS. 4A and 4B at 30 and 60 minutes, respectively. FIG. 4C presents the same data plotted as grams of food consumed (intake) versus time. The results cannot be attributed to a locomotor effect (data not shown).

[6] = brush border membrane (BBM) stability assay; assay type: in vitro ADME, human; conditions: for remaining at 5 h: brush border membrane extract (e.g. kidney)
Summary of the method: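 Peptides digested up to 5 h at 37 °C with human brush border membrane extract (e.g. kidney). Timepoints quenched with 50% ACN, 1% FA, centrifuged, intact peptide quantified by selected-ion mass spectrometry. Expressed as percent stable.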

[7] = molecular target: DPP-IV (Homo sapiens, UniProt P27487); assay: DPP-IV degradation; assay type: in vitro ADME; conditions: isolated DPP-IV peptidase, 25 mM HEPES buffer, 37 degrees C., 10 mM peptide, read-out: intact after contact with DPP-IV
DPP-IV, sequence (P27487 whole entry, species assumed): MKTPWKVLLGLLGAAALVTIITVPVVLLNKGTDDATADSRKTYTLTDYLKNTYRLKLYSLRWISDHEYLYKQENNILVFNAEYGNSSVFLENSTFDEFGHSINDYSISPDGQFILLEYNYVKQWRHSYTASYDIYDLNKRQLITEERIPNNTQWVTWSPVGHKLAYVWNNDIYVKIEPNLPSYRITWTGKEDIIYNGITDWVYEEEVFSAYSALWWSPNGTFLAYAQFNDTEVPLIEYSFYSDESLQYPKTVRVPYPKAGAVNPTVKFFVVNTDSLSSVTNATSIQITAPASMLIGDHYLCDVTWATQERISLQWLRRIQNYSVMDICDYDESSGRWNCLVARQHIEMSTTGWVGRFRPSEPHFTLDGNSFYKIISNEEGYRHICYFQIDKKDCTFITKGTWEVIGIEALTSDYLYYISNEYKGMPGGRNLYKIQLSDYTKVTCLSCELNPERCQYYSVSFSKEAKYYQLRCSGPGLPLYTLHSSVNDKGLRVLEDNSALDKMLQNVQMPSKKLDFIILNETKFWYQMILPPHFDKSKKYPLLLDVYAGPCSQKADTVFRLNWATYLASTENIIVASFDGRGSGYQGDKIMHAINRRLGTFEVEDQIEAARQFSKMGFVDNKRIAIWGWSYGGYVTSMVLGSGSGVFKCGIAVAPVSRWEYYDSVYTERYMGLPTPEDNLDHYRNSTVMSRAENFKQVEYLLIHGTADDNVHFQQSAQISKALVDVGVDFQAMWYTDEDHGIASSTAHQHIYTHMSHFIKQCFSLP
Experimental: Peptide and peptidase were incubated in 25 mM HEPES buffer at 37 degrees C. at 10 mM peptide.

[8] = test system: rats; conditions: 10 μg ICV dose; cited from earlier work
[9] = test system: mice with diet induced obesity (mouse DIO); assay: cumulative food intake in mouse DIO after IP injection (FIGS. 6 and 7); assay type: in vivo; conditions: injected IP at t=0; measured at 30, 60, 120 and 180 min
Experimental: The activities of the following compounds are shown: A, [MimicB36] FN38; B, [His37] FN38; C,
[His35] FN38; D, [Phe33] FN38; E, [Val33] FN38; F, Des-(Ser6,Lys7,Thr8,Gln9) FN38; G, Des-Val16,Val17-FN38; H, [Phe31] FN38; I, Des-(Val16,Val17,Phe24,Ala25,Ser26,Gln27) FN38; J, Des-(Phe1,Leu2,Phe3,His4)FN38; and K, Des-(Phe24,Ala25,Ser26,Gln27)-FN38. […] Points represent mean±sd of n=4 cages (3 mice/cage). Peptide was injected IP at t=0. Food was introduced immediately after injection and amount consumed measured at t=30, 60, 120, and 180 min. In the figure, * p<0.05 vs. vehicle control; ANOVA, Dunnett's test.

[10] = percent compound remaining after a 5 hour incubation, human brush border membrane assay, read-out: hBBM

SMILES: CC(C)C[C@H](NC(=O)[C@H](Cc1ccccc1)NC(=O)[C@@H](N)Cc1ccc(O)cc1)C(=O)N[C@@H](Cc1ccccc1)C(=O)N[C@@H](CCCNC(=N)N)C(=O)N1CCC[C@H]1C(=O)N[C@@H](CCCNC(=N)N)C(=O)N[C@@H](CC(N)=O)C(N)=O [Compound 163291, reference compound]
- activity in food intake assays ([1]; doses between 100-1000 μg/kg (up to 900 nmol/kg)): inactive
- FI (60′, 200) ([1]; food intake): −75%
- difference in potency between U-8 and rNMU-23 ([1]; food intake, mice): at least 1000 fold
- degradation in vitro in plasma [2]: rapid degradation

SMILES: CC(C)C[C@H](NC(=O)[C@H](Cc1ccccc1)NC(=O)[C@H](Cc1ccccc1)NC(=O)CNC(=O)CNC(=O)[C@H](CO)NC(=O)[C@@H]1CCCN1C(=O)[C@H](C)NC(=O)[C@@H](NC(=O)[C@@H]1CCCN1C(=O)CNC(=O)[C@H](CCC(N)=O)NC(=O)[C@H](Cc1ccc(O)cc1)NC(=O)[C@H](CCC(=O)O)NC(=O)[C@H](CC(N)=O)NC(=O)[C@@H](NC(=O)[C@H](CCCCN)NC(=O)[C@@H](N)Cc1ccc(O)cc1)C(C)C)C(C)C)C(=O)N[C@@H](Cc1ccccc1)C(=O)N[C@@H](CCCNC(=N)N)C(=O)N1CCC[C@H]1C(=O)N[C@@H](CCCNC(=N)N)C(=O)N[C@@H](CC(N)=O)C(N)=O [Compound 163293, reference compound] (H-YKVNEYQGPVAPSGGFFLFRPRN-NH2; N-terminus assumed)
- reduction of food intake [1]: up to 66%
- change in intake (effectiveness) ([1]; food intake over 30 min, mice): −60%
- FI (60′, 200) ([1]; food intake): −37.5%
- ED50 at t = 60 ([1]; food intake): 0.017 mg/kg
- ED50 for effect on food intake ([1]; mice): 6.2 nmol/kg
- body weight gain and food intake in the DIO assay ([3]; 75 nmol/kg/day): decreased body weight gain and food intake
- d 14 BWt loss ([3]; mouse DIO, day 14): 3.7%
- cumulative weight gained in rat DIO (FIG. 5) [4]: reduction of cumulative weight gained

Now from value to molecule, other results behind:

- remaining at 5 h [6, 10]: 62%
- BBM ([6]; percent of stable, human brush border membrane extracts, five hours, 37° C.): 62%
- remaining at 50 min, 10 mM [7]: ~100%
SMILES: CC(C)C[C@H](NC(=O)[C@H](CCCCN)NC(=O)[C@H](CCC(N)=O)NC(=O)[C@@H](NC(=O)[C@H](CCCCN)NC(=O)[C@H](CO)NC(=O)[C@H](Cc1ccc(O)cc1)NC(=O)[C@H](Cc1c[nH]cn1)NC(=O)[C@H](Cc1ccccc1)NC(=O)[C@H](CC(C)C)NC(=O)[C@@H](N)Cc1ccccc1)[C@@H](C)O)C(=O)NCC(=O)N[C@@H](CCCCN)C(=O)N[C@@H](CO)C(=O)N[C@@H](CC(N)=O)C(=O)N[C@H](C(=O)N[C@H](C(=O)N[C@@H](CCC(=O)O)C(=O)N[C@@H](CCC(=O)O)C(=O)N[C@@H](CC(C)C)C(=O)N[C@@H](CCC(N)=O)C(=O)N[C@@H](CO)C(=O)N1CCC[C@H]1C(=O)N[C@@H](Cc1ccccc1)C(=O)N[C@@H](C)C(=O)N[C@@H](CO)C(=O)N[C@@H](CCC(N)=O)C(=O)N[C@@H](CO)C(=O)N[C@@H](CCCNC(=N)N)C(=O)NCC(=O)N[C@@H](Cc1ccc(O)cc1)C(=O)N[C@@H](Cc1ccccc1)C(=O)N[C@@H](CC(C)C)C(=O)N[C@@H](Cc1ccccc1)C(=O)N[C@@H](CCCNC(=N)N)C(=O)N1CCC[C@H]1C(=O)N[C@@H](CCCNC(=N)N)C(=O)N[C@@H](CC(N)=O)C(N)=O)C(C)C)C(C)C [Compound 163661] (H-FLFHYSKTQKLGKSNVVEELQSPFASQSRGYFLFRPRN-NH2; N-terminus assumed)
- effect on food intake in over-night fasted rats [5]: inhibiting food intake
- reduction of food intake [1]: 64%
- FI (60′, 200) ([1]; food intake): 0%
- ED50 at t = 60 ([1]; food intake): 4 nmol/kg
- Activity (percent decrease in cumulative food intake compared to the vehicle), AUC ([1]; dose 0.3 nmol/kg): 0%
- Activity (percent decrease in cumulative food intake compared to the vehicle), AUC ([1]; dose 1 nmol/kg): −23%
- Activity (percent decrease in cumulative food intake compared to the vehicle), AUC ([1]; dose 3 nmol/kg): −25%
- Activity (percent decrease in cumulative food intake compared to the vehicle), AUC ([1]; dose 10 nmol/kg): −48%
- Activity (percent decrease in cumulative food intake compared to the vehicle), AUC ([1]; dose 30 nmol/kg): −58%
- Activity (percent decrease in cumulative food intake compared to the vehicle), AUC ([1]; dose 100 nmol/kg): −72%
- Activity (percent decrease in cumulative food intake compared to the vehicle), AUC ([1]; dose 300 nmol/kg): −60%
- Activity (percent decrease in cumulative food intake compared to the vehicle), AUC ([1]; dose 1000 ug/kg): −46%
- Food Intake Inhibition [1]: −46%
- ED50 for effect on food intake ([1]; mice): 8.6 nmol/kg
- d 2 BWt loss ([3]; mouse DIO, day 2): 6.5%
- d 7 BWt loss ([3]; mouse DIO, day 7): 4.3%
- cumulative weight gained in rat DIO (FIG. 5) [4]: reduction of cumulative weight gained

- remaining at 5 h ([6]; percent of stable, human brush border membrane extracts, five hours, 37° C., read-out: BBM): 13%
SMILES: CC(C)C[C@H](NC(=O)[C@H](Cc1ccccc1)NC(=O)[C@H](Cc1ccc(O)cc1)NC(=O)CNC(=O)[C@H](CCCNC(=N)N)NC(=O)[C@H](CO)NC(=O)[C@H](CCC(N)=O)NC(=O)[C@H](CO)NC(=O)[C@H](C)NC(=O)[C@H](Cc1ccccc1)NC(=O)[C@@H]1CCCN1C(=O)[C@H](CO)NC(=O)[C@H](CCC(N)=O)NC(=O)[C@H](Cc1ccccc1)NC(=O)[C@H](CCC(=O)O)NC(=O)[C@H](CCC(=O)O)NC(=O)[C@H](CC(=O)O)NC(=O)[C@@H](NC(=O)[C@H](CCCNC(=N)N)NC(=O)[C@@H](N)Cc1ccccc1)C(C)C)C(=O)N[C@@H](Cc1ccccc1)C(=O)N[C@@H](CCCNC(=N)N)C(=O)N1CCC[C@H]1C(=O)N[C@@H](CCCNC(=N)N)C(=O)N[C@@H](CC(N)=O)C(N)=O [Compound 165054, reference compound] (H-FRVDEEFQSPFASQSRGYFLFRPRN-NH2; N-terminus assumed)
- reduction in food intake [8]: ~30%
- reduction of food intake [1]: at least 91%
- FI (60′, 200) ([1]; food intake): −65%
- potency administered peripherally versus centrally (i.c.v.), on a presumed concentration basis ([1]; i.p. ED50 in mice compared with literature ICV dose in rats): ~300 fold

- remaining at 5 h [6, 10]: 67%
SMILES: CC(C)C[C@H](NC(=O)[C@H](CCCCN)NC(=O)[C@H](CCC(N)=O)NC(=O)[C@@H](NC(=O)[C@H](CCCCN)NC(=O)[C@H](CO)NC(=O)[C@H](Cc1ccc(O)cc1)NC(=O)[C@H](Cc1c[nH]cn1)NC(=O)[C@H](Cc1ccccc1)NC(=O)[C@H](CC(C)C)NC(=O)[C@@H](N)Cc1ccccc1)[C@@H](C)O)C(=O)NCC(=O)N[C@@H](CCCCN)C(=O)N[C@@H](CO)C(=O)N[C@@H](CC(N)=O)C(=O)N[C@H](C(=O)N[C@H](C(=O)N[C@@H](CCC(=O)O)C(=O)N[C@@H](CCC(=O)O)C(=O)N[C@@H](CC(C)C)C(=O)N[C@@H](CCC(N)=O)C(=O)N[C@@H](CO)C(=O)N1CCC[C@H]1C(=O)N[C@@H](Cc1ccccc1)C(=O)N[C@@H](C)C(=O)N[C@@H](CO)C(=O)N[C@@H](CCC(N)=O)C(=O)N[C@@H](CO)C(=O)N[C@@H](CCCNC(=N)N)C(=O)NCC(=O)N[C@@H](Cc1ccc(O)cc1)C(=O)N[C@@H](Cc1ccccc1)C(=O)N[C@@H](Cc1ccccc1)C(=O)N[C@@H](Cc1ccccc1)C(=O)N[C@@H](CCCNC(=N)N)C(=O)N1CCC[C@H]1C(=O)N[C@@H](CCCNC(=N)N)C(=O)N[C@@H](CC(N)=O)C(N)=O)C(C)C)C(C)C [[Phe33]FN38] (H-FLFHYSKTQKLGKSNVVEELQSPFASQSRGYFFFRPRN-NH2; N-terminus assumed)
- cumulative food intake in mouse DIO (FIGS. 6A, 6B, 7A, 7B) [9]: either not active or weakly active
- Food Intake Inhibition [1]: −32%
